Assay [1] has as its system human colon carcinoma HT29. Nature of the assay: In vitro cytotoxicity, Microculture Tetrazolium Assay, HT29. It counts as cell-based. The following applies: HT-29, HT29, 96 hours exposure, read-out: IC50 (concentration of cytotoxic agent which inhibits proliferation of the treated cells by 50%). The method, then:
(§1) The murine leukaemia L1210 and the human colon carcinomas HCT116 and HT29 were used in vitro. The cells are cultured in RPMI 1640 complete culture medium containing 10% foetal calf serum, 2 mM glutamine, 50 units/ml of penicillin, 50 μg/ml of streptomycin and 10 mM Hepes, pH=7.4. The cells are distributed on microplates and are exposed to the cytotoxic compounds for 4 doubling times, that is to say 48 hours (L1210) or 96 hours (HCT116 and HT29). The number of viable cells is then quantified by a […] assay, the Microculture Tetrazolium Assay (J. Carmichael et al., Cancer Res.; 47, 936-942, (1987)). The results are expressed in terms of the IC50 (the concentration of cytotoxic agent which inhibits proliferation of the treated cells by 50%).

The test system of another assay is murine leukaemia L1210. Nature of the assay: In vitro cytotoxicity, Microculture Tetrazolium Assay, L1210. It counts as cell-based. The following applies: Mus musculus; L1210, 48 hours exposure; read-out: IC50 (concentration of cytotoxic agent which inhibits proliferation of the treated cells by 50%). The method, then: as §1

pIC50: −log10 of the molar value.

For `CCC1(O)C(=O)Cc2c1cc1n(c2=O)Cc2c-1nc1cc3c(cc1c2-c1ccc(C)cc1)OCO3` (stereo not drawn) [Example 1, 7-Ethyl-7-hydroxy-2,3-methylenedioxy-13-(4-methylphenyl)-9,12-dihydro-7H-cyclopenta[6,7]indolizino[1,2-b]quinoline-8,10-dione], in assay [1], the pIC50 is 8.49. As to `CCC1(O)C(=O)Cc2c1cc1n(c2=O)Cc2c-1nc1cc3c(cc1c2-c1ccc(N(C)C)cc1)OCO3` (stereo not drawn) [Example 6, 7-Ethyl-2,3-methylenedioxy-7-hydroxy-13-[4-(dimethylamino)phenyl]-9,12-dihydro-7H-cyclopenta[6,7]indolizino[1,2-b]quinoline-8,10-dione], the pIC50 in assay [1] is 8.33; in the assay with murine leukaemia L1210, 7.98.

The values are drawn from patent publication US20100168149A1, “Camptothecin Analogue Compounds, a Process for Their Preparation and Pharmaceutical Compositions Containing Them” (priority 2005, published 2010).
